The supplement of paper PMC10307832

Assays:
Experiment in all cases: relative viability (nuclei count vs DMSO), 5 days (fraction); higher = more cells survive
[1] = compound: CC1=CC=C(C=C1)C(=O)CN2C3=C(CCCC3)SC2=N [Pifithrin_alpha] + Cc1nc(NC(=O)N2CCC[C@H]2C(N)=O)sc1-c1ccnc(C(C)(C)C(F)(F)F)c1 [Alpelisib] (partner 2 µM)
Summary of the method: (§1)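 Dosing by pin tool came one day after lung cancer cell lines were seeded in 1536-well plates, using either one drug or a fixed anchor-drug dose plus five library-drug doses (not always all listed) in √10 steps. After 5 days, nuclei were counted on 4× images. Relative viability is treated-well nuclei count divided by vehicle-well nuclei count, and values are medians of duplicate plates.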

Bemcentinib + Pictilisib = compound: Nc1nc(Nc2ccc3c(c2)CC[C@@H](N2CCCC2)CC3)nn1-c1cc2c(nn1)-c1ccccc1CCC2 [Bemcentinib] + CS(=O)(=O)N1CCN(Cc2cc3nc(-c4cccc5[nH]ncc45)nc(N4CCOCC4)c3s2)CC1 [Pictilisib] (partner 1 µM)
Summary of the method: as §1

Axitinib + Decitabine = compound: CNC(=O)c1ccccc1Sc1ccc2c(/C=C/c3ccccn3)n[nH]c2c1 [Axitinib] + Nc1ncn([C@H]2C[C@H](O)[C@@H](CO)O2)c(=O)n1 [Decitabine] (partner 2 µM)
Summary of the method: as §1

Bemcentinib + Phenformin = compound: Nc1nc(Nc2ccc3c(c2)CC[C@@H](N2CCCC2)CC3)nn1-c1cc2c(nn1)-c1ccccc1CCC2 [Bemcentinib] + N=C(N)NC(=N)NCCc1ccccc1 [Phenformin] (partner 250 µM)
Summary of the method: as §1

| Cell Line | relative viability ([1]; first compound 1 µM) | relative viability ([1]; first compound 3.162 µM) | relative viability ([1]; first compound 10 µM) | relative viability ([1]; first compound 31.62 µM) | relative viability ([1]; first compound 100 µM) | relative viability (Bemcentinib + Pictilisib; first compound 0.04 µM) | relative viability (Bemcentinib + Pictilisib; first compound 0.1265 µM) | relative viability (Bemcentinib + Pictilisib; first compound 0.4 µM) | relative viability (Bemcentinib + Pictilisib; first compound 1.265 µM) | relative viability (Bemcentinib + Pictilisib; first compound 4 µM) | relative viability (Axitinib + Decitabine; first compound 0.005 µM) | relative viability (Axitinib + Decitabine; first compound 0.01581 µM) | relative viability (Axitinib + Decitabine; first compound 0.05 µM) | relative viability (Axitinib + Decitabine; first compound 0.1581 µM) | relative viability (Axitinib + Decitabine; first compound 0.5 µM) | relative viability (Bemcentinib + Phenformin; first compound 0.04 µM) | relative viability (Bemcentinib + Phenformin; first compound 0.1265 µM) | relative viability (Bemcentinib + Phenformin; first compound 0.4 µM) | relative viability (Bemcentinib + Phenformin; first compound 1.265 µM) | relative viability (Bemcentinib + Phenformin; first compound 4 µM) |
| --- | --- | --- | --- | --- | --- | --- | --- | --- | --- | --- | --- | --- | --- | --- | --- | --- | --- | --- | --- | --- |
| NCI-H661 | 0.528 | 0.552 | 0.623 | 0.63 | 0.73 | 0.318 | 0.449 | 0.422 | 0.357 | 0.369 | 0.594 | 0.503 | 0.588 | 0.549 | 0.597 | 0.268 | 0.263 | 0.28 | 0.271 | 0.286 |
| NCI-H23 | 0.586 | 0.572 | 0.634 | 0.466 | 0.592 | 0.443 | 0.503 | 0.541 | 0.453 | 0.476 | 0.327 | 0.311 | 0.346 | 0.299 | 0.325 | 0.813 | 0.822 | 0.803 | 0.659 | 0.755 |
| PC-14 | 0.952 | 0.953 | 0.975 | 0.771 | 0.848 | 0.651 | 0.792 | 0.628 | 0.509 | 0.704 | 0.239 | 0.219 | 0.231 | 0.203 | 0.194 | 0.458 | 0.704 | 0.648 | 0.581 | 0.465 |
| H3255 | 0.587 | 0.739 | 0.692 | 0.403 | 0.593 | 0.463 | 0.488 | 0.448 | 0.465 | 0.557 | 0.736 | – | 0.559 | 0.508 | 0.535 | 0.383 | 0.318 | 0.354 | 0.418 | 0.361 |
| NCI-H3122 | 0.859 | 0.864 | 0.912 | 0.812 | 0.917 | 0.234 | 0.62 | 0.579 | 0.699 | 0.646 | 0.42 | 0.445 | 0.448 | 0.451 | 0.51 | – | 0.412 | 0.366 | 0.358 | 0.381 |
| NCI-H2009 | 1.25 | 1.11 | 1.1 | 0.835 | 0.827 | 0.753 | 0.928 | 0.855 | 0.914 | 0.888 | 0.408 | 0.339 | 0.409 | 0.364 | 0.346 | 0.497 | 0.544 | 0.489 | 0.466 | 0.418 |
| HCC-827 | 0.878 | 1.03 | 0.919 | 0.626 | 0.823 | 1.11 | 0.943 | 1.05 | 0.877 | 1.07 | 0.321 | 0.216 | 0.358 | 0.32 | 0.333 | 0.413 | 0.375 | 0.43 | 0.431 | 0.419 |
| LXF-289 | 1.09 | 1.01 | 1.08 | 0.921 | 1.03 | 0.871 | 0.854 | 0.814 | 0.79 | 0.844 | 0.388 | 0.398 | 0.353 | 0.362 | 0.395 | 0.523 | 0.533 | 0.534 | 0.532 | 0.54 |
